System: 317291-083-R-J1-PDC complex spheroids, viability
Assay: Anticancer human tumor 317291-083-R-J1-PDC patient-derived soft tissue sarcoma cell line growth inhibition [GQUAD]
Conditions: for IC50: curve of first compound; for viability, T/C: stronger effect = lower value
Description: DNA G-quadruplex Stabilizer Agents in Combinations in Complex Spheroids
A high-throughput screen of multi-cell type tumor spheroids was designed to identify active combinations of DNA G-quadruplex stabilizer agents and targeted small molecules. Complex spheroids include a stromal component modeled by human endothelial cells (HUVEC) and fibroblasts modeled by human mesenchymal stem cells (MSCs). The concentration ranges selected for each drug and investigational agent were based upon clinically achievable concentrations if the clinical Cmax of the agent was known.
Compounds. The drugs and investigational agents: pidnarulex (CX-5461; NSC782164), APTO-253 (NSC789042), BRACO-19 (NSC847499), peposertib (NSC802822), ceralasertib (NSC780249), elimusertib (NSC800525), camonsertib (NSC841442), AZD-1390 (NSC803789), olaparib (NSC753686), talazoparib (NSC767125), ART-558 (NSC835418), sotorasib (NSC818433), MRTX-1133 (NSC836407), SN-38 (NSC673596), topotecan (NSC609699), etoposide (NSC141540), doxorubicin (NSC123127), gemcitabine (NSC613327), 5-fluorouracil (NSC19893), paclitaxel (NSC125973), vemurafenib (NSC761431), panobinostat (NSC761190), R-306465 (JNJ-16241199; NSC773264), adavosertib (NSC754352), TP-3654 (NSC805149), carboplatin (NSC241240), KSQ-4279 (NSC840948), and staurosporine (NSC755774) were obtained from the National Cancer Institute (NCI) Developmental Therapeutics Program Chemical Repository (34). The FDA-approved anticancer drug set is available from the NCI Developmental Therapeutics Program. […] The stock solutions were prepared in dimethyl sulfoxide (DMSO, Sigma-Aldrich, St. Louis, MO, cat. D2650) at 800-fold the tested concentration and stored at -70 degrees C prior to their use. All drugs and investigational agents were tested over a range starting from a high concentration at or near the clinical Cmax and decreasing in half-log increments. If the clinical Cmax for an agent had not been determined, the highest concentration tested was 10 microM.
2.3 Cell Culture. All cells were maintained in an incubator at 37 degrees C and 5% CO2 with 95% humidity. The PDC lines were cultured according to standard operating procedures established by the NCI PDMR. All PDCs were thawed and cultured in Matrigel-coated flasks prepared with a working solution of 1X Ham's F-12 nutrient mix, without supplementation (Invitrogen, cat. 11765054), 100 U/mL penicillin-streptomycin (Invitrogen, cat. 15140122), and 2.5% Matrigel (Corning Inc., cat. 354248) for the first three passages. The 857933-349-R-J2-PDC line was cultured in 6C/Colon 1B media, which includes advanced DMEM/F-12 (Thermo Fisher Scientific, cat. 12634028), 10 mM HEPES (Thermo Fisher Scientific, cat. 15630080), 1X GlutaMAX supplement (Thermo Fisher Scientific, cat. 35050061), 0.1 mg/mL primocin (InvivoGen, cat. ant-pm-2), 10% defined fetal bovine serum, heat inactivated (HyClone Laboratories Inc., cat. SH30070.03HI), 50% L-WRN conditioned media (ATCC, cat. CRL-3276), 1.25 mM N-Acetyl-L-cysteine (Sigma-Aldrich, cat. A9165), 10 mM nicotinamide (Sigma-Aldrich, cat. N0636), 1X B-27 supplement (Thermo Fisher Scientific, cat. 17504044), 1X N-2 supplement (Thermo Fisher Scientific, cat. 17502048), 10 microM Y-27632 dihydrochloride (Tocris Bioscience, cat. 1254), and 50 ng/mL human EGF recombinant protein (Thermo Fisher Scientific, cat. PHG0311). The 485176-168-R4-J1-PDC line was cultured in Panc media, which includes all 6C/Colon 1B media components plus 100 ng/mL human FGF-10 (Thermo Fisher Scientific, cat. 100-26), 500 nM SB-431542 (Selleckchem, cat. S1067), and gastrin (Tocris, cat. 3006).
[…]

[1] = second compound 0.0316 µM, first compound 0.0316 µM
[2] = second compound 0.0316 µM, first compound 0.1 µM
[3] = second compound 0.0316 µM, first compound 0.316 µM
[4] = second compound 0.0316 µM, first compound 1 µM
[5] = second compound 0.0316 µM, first compound 3.16 µM
[6] = second compound 0.0316 µM, first compound 10 µM
[7] = second compound 0.1 µM, first compound 0.0316 µM
[8] = second compound 0.1 µM, first compound 0.1 µM
[9] = second compound 0.1 µM, first compound 0.316 µM
[10] = second compound 0.1 µM, first compound 1 µM
[11] = second compound 0.1 µM, first compound 3.16 µM
[12] = second compound 0.1 µM, first compound 10 µM
[13] = second compound 0.316 µM, first compound 0.0316 µM
[14] = second compound 0.316 µM, first compound 0.1 µM
[15] = second compound 0.316 µM, first compound 0.316 µM
[16] = second compound 0.316 µM, first compound 1 µM
[17] = second compound 0.316 µM, first compound 3.16 µM
[18] = second compound 0.316 µM, first compound 10 µM
[19] = second compound 1 µM, first compound 0.0316 µM
[20] = second compound 1 µM, first compound 0.1 µM
[21] = second compound 1 µM, first compound 0.316 µM
[22] = second compound 1 µM, first compound 1 µM
[23] = second compound 1 µM, first compound 3.16 µM
[24] = second compound 1 µM, first compound 10 µM
[25] = second compound 3.16 µM, first compound 0.0316 µM
[26] = second compound 3.16 µM, first compound 0.1 µM
[27] = second compound 3.16 µM, first compound 0.316 µM
[28] = second compound 3.16 µM, first compound 1 µM
[29] = second compound 3.16 µM, first compound 3.16 µM
[30] = second compound 3.16 µM, first compound 10 µM
[31] = second compound 10 µM, first compound 0.0316 µM
[32] = second compound 10 µM, first compound 0.1 µM
[33] = second compound 10 µM, first compound 0.316 µM
[34] = second compound 10 µM, first compound 1 µM
[35] = second compound 10 µM, first compound 3.16 µM
[36] = second compound 10 µM, first compound 10 µM
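Further: spheroids exposed to compounds for one week before readout.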
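Wherever viability, T/C is given: percent viability relative to DMSO vehicle wells taken as 100%.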

CC1COCCN1c1cc(C2(O)CC3CCC(C2)O3)c2cnn(-c3ccn[nH]3)c2n1 (stereo unspecified) + CN(C)c1ccc(Nc2c3ccc(NC(=O)CCN4CCCC4)cc3nc3cc(NC(=O)CCN4CCCC4)ccc23)cc1
IC50 (second compound 0.0316 µM): 37.1 nM
IC50 (second compound 0.1 µM): < 31.6 nM
IC50 (second compound 0.316 µM): < 31.6 nM
IC50 (second compound 1 µM): < 31.6 nM
IC50 (second compound 3.16 µM): < 31.6 nM
IC50 (second compound 10 µM): < 31.6 nM
viability, T/C [1]: 54.7%
viability, T/C [2]: 21.6%
viability, T/C [3]: 16.4%
viability, T/C [4]: 16.2%
viability, T/C [5]: 12.9%
viability, T/C [6]: 2.01%
viability, T/C [7]: 50.5%
viability, T/C [8]: 25.5%
viability, T/C [9]: 18.2%
viability, T/C [10]: 15.3%
viability, T/C [11]: 11.1%
viability, T/C [12]: 3.17%
viability, T/C [13]: 44.2%
viability, T/C [14]: 17.4%
viability, T/C [15]: 12.6%
viability, T/C [16]: 12.1%
viability, T/C [17]: 12.8%
viability, T/C [18]: 2.37%
viability, T/C [19]: 23.5%
viability, T/C [20]: 10.9%
viability, T/C [21]: 8.42%
viability, T/C [22]: 5.55%
viability, T/C [23]: 7.51%
viability, T/C [24]: 1.2%
viability, T/C [25]: 15.1%
viability, T/C [26]: 9.28%
viability, T/C [27]: 6%
viability, T/C [28]: 3.23%
viability, T/C [29]: 4.27%
viability, T/C [30]: 0.57%
viability, T/C [31]: 4.09%
viability, T/C [32]: 3.93%
viability, T/C [33]: 2.46%
viability, T/C [34]: 2.16%
viability, T/C [35]: 2.2%
viability, T/C [36]: 0.34%

CC1COCCN1c1cc(C2(S(C)(=N)=O)CC2)nc(-c2ccnc3[nH]ccc23)n1 (stereo unspecified) + CN(C)c1ccc(Nc2c3ccc(NC(=O)CCN4CCCC4)cc3nc3cc(NC(=O)CCN4CCCC4)ccc23)cc1
IC50 (second compound 0.0316 µM): 956 nM
IC50 (second compound 0.1 µM): 1150 nM
IC50 (second compound 0.316 µM): 432 nM
IC50 (second compound 1 µM): 77.3 nM
IC50 (second compound 3.16 µM): < 31.6 nM
IC50 (second compound 10 µM): < 31.6 nM
viability, T/C [1]: 123%
viability, T/C [2]: 111%
viability, T/C [3]: 81.6%
viability, T/C [4]: 49.3%
viability, T/C [5]: 25.8%
viability, T/C [6]: 15.9%
viability, T/C [7]: 141%
viability, T/C [8]: 105%
viability, T/C [9]: 82.6%
viability, T/C [10]: 54.6%
viability, T/C [11]: 22.2%
viability, T/C [12]: 17.1%
viability, T/C [13]: 84.9%
viability, T/C [14]: 79.9%
viability, T/C [15]: 55.7%
viability, T/C [16]: 32%
viability, T/C [17]: 21.6%
viability, T/C [18]: 16.8%
viability, T/C [19]: 56.6%
viability, T/C [20]: 44.1%
viability, T/C [21]: 41.9%
viability, T/C [22]: 18.3%
viability, T/C [23]: 15.2%
viability, T/C [24]: 7.51%
viability, T/C [25]: 38%
viability, T/C [26]: 24.3%
viability, T/C [27]: 37.5%
viability, T/C [28]: 12.3%
viability, T/C [29]: 8.02%
viability, T/C [30]: 7.55%
viability, T/C [31]: 3.33%
viability, T/C [32]: 5.73%
viability, T/C [33]: 7.2%
viability, T/C [34]: 6.92%
viability, T/C [35]: 3.25%
viability, T/C [36]: 1.68%

COc1ccc([C@@H](O)c2cc(-c3ncnc4cc(N5CCOCC5)ccc34)c(F)cc2Cl)nn1 + CN(C)c1ccc(Nc2c3ccc(NC(=O)CCN4CCCC4)cc3nc3cc(NC(=O)CCN4CCCC4)ccc23)cc1
IC50 (second compound 0.0316 µM): 5630 nM
IC50 (second compound 0.1 µM): 4160 nM
IC50 (second compound 0.316 µM): 2040 nM
IC50 (second compound 1 µM): 114 nM
IC50 (second compound 3.16 µM): < 31.6 nM
IC50 (second compound 10 µM): < 31.6 nM
viability, T/C [1]: 111%
viability, T/C [2]: 108%
viability, T/C [3]: 94%
viability, T/C [4]: 89.4%
viability, T/C [5]: 67.4%
viability, T/C [6]: 33.1%
viability, T/C [7]: 104%
viability, T/C [8]: 97.5%
viability, T/C [9]: 104%
viability, T/C [10]: 82%
viability, T/C [11]: 57%
viability, T/C [12]: 31%
viability, T/C [13]: 85.2%
viability, T/C [14]: 76.3%
viability, T/C [15]: 71.6%
viability, T/C [16]: 61%
viability, T/C [17]: 43.5%
viability, T/C [18]: 21.9%
viability, T/C [19]: 57.5%
viability, T/C [20]: 42.6%
viability, T/C [21]: 47.9%
viability, T/C [22]: 42.5%
viability, T/C [23]: 28.8%
viability, T/C [24]: 12.8%
viability, T/C [25]: 22.4%
viability, T/C [26]: 24.1%
viability, T/C [27]: 32.2%
viability, T/C [28]: 15.5%
viability, T/C [29]: 8.93%
viability, T/C [30]: 6.58%
viability, T/C [31]: 12.8%
viability, T/C [32]: 15%
viability, T/C [33]: 3.27%
viability, T/C [34]: 5.49%
viability, T/C [35]: 11.5%
viability, T/C [36]: 1.01%

— PubChem BioAssay AID2060497 (Molecular Pharmacology Branch, DTP, NCI, 2025)
